Results taken from patent US10647743B2, “Method of making biologically active alpha-beta peptides” (priority 2008, dated 2020).
Where two headings read alike, the source gives them in different places.

Columns and labels:
Bcl-xL [1] = molecular target: T1, Bcl-xL (Homo sapiens, UniProt Q07817); assay: biochemical
Mcl-1 = Mcl-1 (Homo sapiens, UniProt Q07820); assay: direct-binding FP of BODIPY-TMR labeled analogs, Mcl-1; details: Table 5, BODIPY-labeled analogues
Bcl-xL [2] = molecular target: T1, Bcl-xL; assay: competition FP with fluorescently labeled Bak-BH3 peptide, Bcl-xL; assay type: binding
proteinase K [3] = molecular target: T2, proteinase K (Parengyodontium album, UniProt P06873); assay: proteinase K stability of Puma BH3 peptides
T2 sequence (P06873 106-384): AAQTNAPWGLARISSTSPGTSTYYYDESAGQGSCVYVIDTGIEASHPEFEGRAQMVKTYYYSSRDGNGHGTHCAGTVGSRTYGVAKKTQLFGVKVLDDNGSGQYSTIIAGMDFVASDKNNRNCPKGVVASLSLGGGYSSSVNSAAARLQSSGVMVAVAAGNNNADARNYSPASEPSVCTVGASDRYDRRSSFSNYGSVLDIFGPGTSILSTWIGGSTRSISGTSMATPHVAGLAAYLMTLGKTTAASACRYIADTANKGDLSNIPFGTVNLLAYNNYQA

HIV-1 DJ258 = details: read-out: Inhibition of HIV-1 infectivity, IC50 (nM), R5 strains, DJ258; TZM-bl cells; mean ± S.E.M., three experiments
gp41-5 = gp41-5 (Human immunodeficiency virus type 1 group M subtype B, UniProt P04578, C598G/DEL582-595/DEL601-626/T627G/W596S); assay: biochemical; assay type: binding, HIV; details: competition FP
NHR α-peptide 1 = molecular target: T3, NHR α-peptide 1 (Human immunodeficiency virus type 1 group M subtype B, UniProt P04578); assay: CD thermal unfolding of 1:1 NHR + CHR peptide mixtures; assay type: physicochemical, HIV; details: Table 2; CD at 222 nm, 1:1 mixture with NHR α-peptide 1, PBS, 20 μM total peptide
T3 construct: made in house; host or cells: chemical synthesis (Fmoc solid phase)
Method: The interactions of select α/β-peptides with the gp41 NHR domain were further investigated by circular dichroism (CD) spectroscopy. The CD spectra of 3, 4, 5, 8, 9 and were measured, both alone (see FIG. 5A) and in a 1:1 mixture with NHR α-peptide 1 (see FIGS. 3A, 3B, 3C, and 3D, respectively). See also FIGS. 5B and 5C for the superimposed spectra. […] The magnitude of the CD signatures among the well-folded mixtures (1+3, 1+5 and 1+10, FIGS. 3A, 3C, and 3D, respectively) are similar, but the ratio of intensities at 208 and 222 nm changes as a function of β-residue content (more β-residues tracks with a less intense peak at 222 nm).
The interactions of CHR α-peptide 3 and α/β-peptide analogues 4, 5, 8 and 10 with a peptide derived from the gp41 NHR domain (1) were investigated by circular dichroism (CD) spectroscopy. […] The magnitude of the CD signatures among the well-folded mixtures (1+3, 1+5, 1+8 and 1+10) are similar, but the ratio of intensities at 208 and 222 nm changes as a function of β-residue content (higher β-residue content is correlated with a less intense peak at 222 nm). This trend is consistent with previous studies on helical oligomers containing mixed α/β backbones.
Circular Dichroism Spectroscopy. Circular dichroism measurements were carried out on an Aviv 202SF Circular Dichroism Spectrophotometer. Samples of each peptide were prepared at 20 μM concentration in PBS. Solutions of 1:1 peptide mixtures were prepared by mixing equal volumes from the same 20 μM stock solutions used for individual peptide measurements. Spectra were recorded in a 1 mm cell with a step size of 1 nm and an averaging time of 5 sec. All spectra are background corrected against buffer measured in the same cell. Thermal melts were carried out in 5-degree increments with an equilibration time of 10 min between each temperature change. Thermal unfolding data were fit to a simple two state folding model Shortle, D.; Meeker, A. K.; Freire, E. Biochemistry 1988, 27, 4761-4768) using GraphPad Prism.

[4] = molecular target: T4, envelope glycoprotein of the HIV-1 clone HXB2 (Human immunodeficiency virus type 1 group M subtype B, UniProt P04578); assay: cell-cell fusion assay; assay type: cell-based
T4 construct: One cell line expresses HIV-1 Env (processed by cellular proteases to generate gp120+gp41); expressed in transfected cells; host or cells: CHO cells expressing HXB2 env (and Tat); U373-MAGI target cells

HIV-1 CC 1/85 = details: read-out: Inhibition of HIV-1 infectivity, IC50 (nM), R5 strains, CC 1/85; TZM-bl cells; mean ± S.E.M., three experiments
proteinase K [5] = molecular target: T2, proteinase K; assay: in vitro; details: proteinase K solution in TBS
proteinase K [6] = molecular target: T2, proteinase K; details: under the assay conditions
HIV-1 NL4-3 = details: read-out: Inhibition of HIV-1 infectivity, IC50 (nM), X4 strains, NL4-3; TZM-bl cells; mean ± S.E.M., three experiments
HIV-1 HC4 = details: read-out: Inhibition of HIV-1 infectivity, IC50 (nM), X4 strains, HC4; TZM-bl cells; mean ± S.E.M., three experiments
HIV = details: background; read-out: anti-HIV IC50 in cell-based assays; cited from earlier work
[7] = Table 4, read-out: gp41-5 binding affinity by FP Ki

T1 sequence (Q07817 whole entry, species assumed): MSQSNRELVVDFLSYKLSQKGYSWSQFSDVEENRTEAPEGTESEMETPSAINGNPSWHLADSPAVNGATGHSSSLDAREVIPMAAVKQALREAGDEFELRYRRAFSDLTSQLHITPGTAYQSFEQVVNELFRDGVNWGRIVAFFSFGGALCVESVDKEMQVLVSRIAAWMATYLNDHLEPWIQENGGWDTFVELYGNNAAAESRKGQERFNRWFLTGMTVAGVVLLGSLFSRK
Sequence of Mcl-1 (Q07820 whole entry, species assumed): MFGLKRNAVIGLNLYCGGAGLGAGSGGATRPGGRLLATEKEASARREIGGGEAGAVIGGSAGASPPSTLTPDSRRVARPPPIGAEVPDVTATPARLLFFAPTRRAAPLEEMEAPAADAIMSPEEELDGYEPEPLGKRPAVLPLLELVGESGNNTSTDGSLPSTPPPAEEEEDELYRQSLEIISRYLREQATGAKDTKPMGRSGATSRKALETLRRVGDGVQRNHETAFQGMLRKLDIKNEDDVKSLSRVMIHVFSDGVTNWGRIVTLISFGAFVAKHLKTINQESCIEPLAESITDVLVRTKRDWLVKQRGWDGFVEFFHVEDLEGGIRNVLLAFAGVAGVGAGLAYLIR

| Compound | Kd (Bcl-xL [1]) [nM] | Kd (Mcl-1) [nM] | Ki (Bcl-xL [2]) [nM] | half-life at 50 μm (proteinase K [3]) [h] | half-life at 50 μm (in vitro) [min] | IC50 (HIV-1 DJ258) [nM] | Ki (gp41-5; Table 2, read-out: gp41-5 Ki) [nM] | Ki (gp41-5; [7]) [nM] | Ki (gp41-5; read-out: Ki for gp41-5) [nM] | NHR + CHR Tm (° C.) (NHR α-peptide 1) [°C] | IC50 [4] [nM] | IC50 (HIV-1 CC 1/85) [nM] | half-life at 20 μM (proteinase K [5]; Tritirachium album (source organism of proteinase K)) [min] | half-life at 20 μM (proteinase K [5]) [min] | degradation by proteinase K (proteinase K [6]) | IC50 (HIV-1 NL4-3) [nM] | IC50 (HIV-1 HC4) [nM] | IC50 (HIV) [nM] |
| --- | --- | --- | --- | --- | --- | --- | --- | --- | --- | --- | --- | --- | --- | --- | --- | --- | --- | --- |
| CC[C@H](C)[C@H](NC(=O)[C@H](CCC(=O)O)NC(=O)C[C@H](CCCNC(=N)N)NC(=O)[C@H](C)NC(=O)[C@H](Cc1c[nH]c2ccccc12)NC(=O)C[C@H](CCC(N)=O)NC(=O)[C@H](CCC(=O)O)NC(=O)[C@H](CCC(=O)O)NC(C)=O)C(=O)NCC(=O)N[C@@H](C)CC(=O)N[C@@H](CCC(N)=O)C(=O)N[C@@H](CC(C)C)C(=O)N[C@@H](CCCNC(=N)N)CC(=O)N[C@@H](CCCNC(=N)N)C(=O)N[C@@H](CCSC)C(=O)N[C@@H](C)C(=O)N[C@@H](CC(=O)O)CC(=O)N[C@@H](CC(=O)O)C(=O)N[C@@H](CC(C)C)C(=O)N[C@@H](CC(N)=O)CC(=O)N[C@@H](C)C(=O)N[C@@H](CCC(N)=O)C(=O)N[C@@H](Cc1ccc(O)cc1)C(=O)N[C@@H](CCC(=O)O)CC(=O)N[C@@H](CCCNC(=N)N)C(=O)N[C@@H](CCCNC(=N)N)C(N)=O [2′] | 2.2 | 110 | < 1 | > 50 | 100 | – | – | – | – | – | – | – | – | – | – | – | – | – |
| CC[C@H](C)[C@H](NC(=O)C[C@H](CCC(=O)O)NC(=O)[C@H](CCCNC(=N)N)NC(=O)[C@H](C)NC(=O)[C@H](Cc1c[nH]c2ccccc12)NC(=O)C[C@H](CCC(N)=O)NC(=O)[C@H](CCC(=O)O)NC(=O)[C@H](CCC(=O)O)NC(C)=O)C(=O)NCC(=O)N[C@@H](C)CC(=O)N[C@@H](CCC(N)=O)C(=O)N[C@@H](CC(C)C)C(=O)N[C@@H](CCCNC(=N)N)C(=O)N[C@@H](CCCNC(=N)N)CC(=O)N[C@@H](CCSC)C(=O)N[C@@H](C)C(=O)N[C@@H](CC(=O)O)CC(=O)N[C@@H](CC(=O)O)C(=O)N[C@@H](CC(C)C)C(=O)N[C@@H](CC(N)=O)C(=O)N[C@@H](C)CC(=O)N[C@@H](CCC(N)=O)C(=O)N[C@@H](Cc1ccc(O)cc1)C(=O)N[C@@H](CCC(=O)O)CC(=O)N[C@@H](CCCNC(=N)N)C(=O)N[C@@H](CCCNC(=N)N)C(N)=O [3′] | – | – | – | 2.83 | 3.5 | – | – | – | – | – | – | – | – | – | – | – | – | – |
| CC[C@H](C)[C@H](NC(=O)[C@H](C)NC(=O)[C@H](CCCNC(=N)N)NC(=O)[C@H](CC(=O)O)NC(=O)[C@H](Cc1c[nH]c2ccccc12)NC(=O)[C@H](C)NC(=O)[C@H](CCC(=O)O)NC(=O)[C@H](Cc1c[nH]c2ccccc12)NC(=O)[C@@H](NC(=O)[C@@H](NC(C)=O)[C@@H](C)O)[C@@H](C)O)C(=O)N[C@@H](C)C(=O)N[C@@H](CCC(=O)O)C(=O)N[C@@H](Cc1ccc(O)cc1)C(=O)N[C@@H](C)C(=O)N[C@@H](C)C(=O)N[C@@H](CCCNC(=N)N)C(=O)N[C@H](C(=O)N[C@@H](CCC(=O)O)C(=O)N[C@@H](C)C(=O)N[C@@H](CC(C)C)C(=O)N[C@H](C(=O)N[C@@H](CCCNC(=N)N)C(=O)N[C@@H](C)C(=O)N[C@@H](C)C(=O)N[C@@H](CCC(N)=O)C(=O)N[C@@H](CCC(=O)O)C(=O)N[C@@H](CCC(N)=O)C(=O)N[C@@H](CCC(N)=O)C(=O)N[C@@H](CCC(=O)O)C(=O)N[C@@H](CCCCN)C(=O)N[C@@H](CC(N)=O)C(=O)N[C@@H](CCC(=O)O)C(=O)N[C@@H](C)C(=O)N[C@@H](C)C(=O)N[C@@H](CC(C)C)C(=O)N[C@@H](CCCNC(=N)N)C(=O)N[C@@H](CCC(=O)O)C(=O)N[C@@H](CC(C)C)C(N)=O)[C@@H](C)CC)[C@@H](C)CC [compound 3, reference compound] | – | – | – | – | – | 58 ± 6 | ≤ 0.2 | < 0.2 | < 0.2 | 77 | 9 ± 3 | 140 ± 20 | 0.7 | 0.7 | completely degraded within minutes | 5 ± 0.6 | 27 ± 4 | – |
| CC[C@H](C)[C@H](NC(=O)[C@H](C)NC(=O)[C@H](CCCNC(=N)N)NC(=O)[C@H](CC(=O)O)NC(=O)[C@H](Cc1c[nH]c2ccccc12)NC(=O)[C@H](C)NC(=O)[C@H](CCC(=O)O)NC(=O)[C@H](Cc1c[nH]c2ccccc12)NC(=O)[C@@H](NC(=O)[C@@H](NC(C)=O)[C@@H](C)O)[C@@H](C)O)C(=O)N[C@@H](C)C(=O)N[C@@H](CCC(=O)O)C(=O)N[C@@H](Cc1ccc(O)cc1)C(=O)N[C@@H](C)C(=O)N[C@@H](C)C(=O)N[C@@H](CCCNC(=N)N)C(=O)N[C@H](C(=O)N[C@@H](CCC(=O)O)C(=O)N[C@@H](C)C(=O)N[C@@H](CC(C)C)C(=O)N[C@H](C(=O)N[C@@H](CCCNC(=N)N)CC(=O)N[C@@H](C)C(=O)N[C@@H](C)C(=O)N[C@@H](CCC(N)=O)C(=O)N[C@@H](CCC(=O)O)CC(=O)N[C@@H](CCC(N)=O)C(=O)N[C@@H](CCC(N)=O)C(=O)N[C@@H](CCC(=O)O)CC(=O)N[C@@H](CCCCN)C(=O)N[C@@H](CC(N)=O)C(=O)N[C@@H](CCC(=O)O)C(=O)N[C@@H](C)CC(=O)N[C@@H](C)C(=O)N[C@@H](CC(C)C)C(=O)N[C@@H](CCCNC(=N)N)CC(=O)N[C@@H](CCC(=O)O)C(=O)N[C@@H](CC(C)C)C(N)=O)[C@@H](C)CC)[C@@H](C)CC [compound 5] | – | – | – | – | – | 280 ± 90 | 0.2 | < 0.2 | – | 69 | 7 ± 2 | 270 ± 20 | – | – | – | 10 ± 2 | 55 ± 8 | – |
| enfuvirtide | – | – | – | – | – | 330 ± 60 | – | – | – | – | – | 1400 ± 400 | – | – | – | 700 ± 100 | 250 ± 20 | ~1 |
